pKi: −log10 of the molar value.
What was measured:
[1] = molecular target: T1, TC-PTP (Homo sapiens, UniProt P17706); test: Inhibition constant determination, selectivity panel: TCPTP (pNPP hydrolysis); assay type: biochemical; details: for pKi: competitive Ki, pNPP substrate, +/− S.D., read-out: Phosphatase Inhibition Constants (Kic) TC-PTP; for selective for PTP1B over TCPTP: from Kic values of Table 1
T1 construct: chromatography of TCPTP (amino acid residues 1-283) was on Q-Sepharose-FF
T1 sequence (P17706 1-283): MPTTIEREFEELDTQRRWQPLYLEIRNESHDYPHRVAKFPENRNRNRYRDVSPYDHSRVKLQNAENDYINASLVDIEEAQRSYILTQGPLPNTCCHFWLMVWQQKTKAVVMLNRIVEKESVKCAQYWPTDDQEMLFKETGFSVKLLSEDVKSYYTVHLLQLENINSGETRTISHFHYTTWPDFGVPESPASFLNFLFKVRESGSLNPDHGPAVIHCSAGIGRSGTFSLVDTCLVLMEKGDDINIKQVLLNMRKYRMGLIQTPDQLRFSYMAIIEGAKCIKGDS
Description: Protein tyrosine phosphatase 1B activity was determined by measuring the rate of hydrolysis of a surrogate substrate, p-nitrophenyl phosphate (aka pNPP, C1907 Sigma, St. Louis, Mo.). The assay was carried out at room temperature in 96 well polypropylene or polyethylene plates in a total volume of 100 μL per well. Appropriate dilutions of the compounds were made in DMSO and then diluted ten fold with water. […] The reaction was initiated by adding 50 μL of diluted PTP1B diluted in 2× assay buffer containing 50 mM HEPES (pH=7.5), 300 mM NaCl and 0.2 mg/mL BSA. The phosphatase activity results in the formation of the colored product p-nitrophenol (pNP) which was continuously monitored at 405 nm every 30 seconds for 15 minutes using an appropriate plate reader. The absorbance at 405 nm was converted to nanomoles of pNP using a standard curve and the initial rate of pNP formation was calculated. For each concentration of test compound (inhibitor) or DMSO control, the initial rates are used to fit the rectangular hyperbola of Michaelis-Menten by non-linear regression analysis (GraphPad Software Prism 3.0). The ratio of the apparent Km/Vmax vs. inhibitor concentration was plotted and the competitive Ki was calculated by linear regression to be the negative x-intercept. The uncompetitve Ki was similarly calculated from the x-intercept of the plot of the reciprocal of the apparent Vmax versus the inhibitor concentration.
TCPTP used was either obtained commercially (catalog#752L New England Biolabs, 32 Tozer Rd, Beverly, Mass.) or as described for PTP1B. The purification of TCPTP differed from the purification of PTP1b in that chromatography of TCPTP (amino acid residues 1-283) was on Q-Sepharose-FF (Amersham Pharmacia Biotech) in 50 mM TRIS-HC1, pH 7.5, 2 mM DTT, 10% (v/v) glycerol, and was eluted with a 3 CV gradient of 0-300 mM NaCl in the same buffer. Fractions which contained TCPTP were selected and pooled based on SDS-PAGE. They were dialyzed versus 40 mM sodium phosphate, pH 7.5, 1 M ammonium sulfate, 10% (v/v) glycerol, 2 mM DTT, 1 mM sodium azide, applied to Phenyl Sepharose FF (Amersham Pharmacia Biotech), washed with 2.5 CV of the same buffer, and eluted with a 7 CV gradient of 1M to 0M NaCl in the same buffer. Fractions were assayed, pooled, frozen and stored as described for PTP1B.
The Kic and Kiu values are calculated as described for PTP1B. The assays were performed as described for PTP-1B except for the following changes. All the phosphatases except PP2B use the same 2× assay buffer as PTP1B. […] The concentrations of pNPP present in 40 ul were the same for TCPTP, CD45, LAR and PTP1B.

[2] = molecular target: T2, protein tyrosine phosphatase 1B (PTP1B, amino acid residues 1-321) (Homo sapiens, UniProt P18031); test: Inhibition constant determination for protein tyrosine phosphatase 1B (pNPP hydrolysis); assay type: biochemical; details: competitive Ki, pNPP substrate, +/− S.D.; read-out: Phosphatase Inhibition Constants (Kic) PTP1B
T2 construct: PTP1B, amino acid residues 1-321; made in house; host or cells: E. coli BL21 (DE3)
T2 sequence (P18031 1-321): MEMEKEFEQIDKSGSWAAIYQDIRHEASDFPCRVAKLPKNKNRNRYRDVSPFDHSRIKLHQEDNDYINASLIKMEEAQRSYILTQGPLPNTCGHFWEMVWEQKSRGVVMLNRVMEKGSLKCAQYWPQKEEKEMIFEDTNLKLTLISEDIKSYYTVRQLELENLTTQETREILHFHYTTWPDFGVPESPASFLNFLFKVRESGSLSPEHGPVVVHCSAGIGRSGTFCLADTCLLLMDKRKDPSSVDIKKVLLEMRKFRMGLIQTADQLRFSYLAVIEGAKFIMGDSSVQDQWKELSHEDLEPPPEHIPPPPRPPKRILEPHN
Description: Protein tyrosine phosphatase 1B activity was determined by measuring the rate of hydrolysis of a surrogate substrate, p-nitrophenyl phosphate (aka pNPP, C1907 Sigma, St. Louis, Mo.). The assay was carried out at room temperature in 96 well polypropylene or polyethylene plates in a total volume of 100 μL per well. Appropriate dilutions of the compounds were made in DMSO and then diluted ten fold with water. […] The reaction was initiated by adding 50 μL of diluted PTP1B diluted in 2× assay buffer containing 50 mM HEPES (pH=7.5), 300 mM NaCl and 0.2 mg/mL BSA. […] For each concentration of test compound (inhibitor) or DMSO control, the initial rates are used to fit the rectangular hyperbola of Michaelis-Menten by non-linear regression analysis (GraphPad Software Prism 3.0). The ratio of the apparent Km/Vmax vs. inhibitor concentration was plotted and the competitive Ki was calculated by linear regression to be the negative x-intercept. The uncompetitve Ki was similarly calculated from the x-intercept of the plot of the reciprocal of the apparent Vmax versus the inhibitor concentration.

[3] = molecular target: T3, CDC25c (fusion with glutathione-S-transferase) (Homo sapiens, UniProt P30307); test: Inhibition constant determination, selectivity panel: Cdc25c (pNPP hydrolysis); assay type: biochemical; details: competitive Ki, pNPP substrate; read-out: Phosphatase Inhibition Constants (Kic) Cdc25c
T3 construct: GST (glutathione-S-transferase); made in house; host or cells: E. coli
T3 sequence (P30307 1-473): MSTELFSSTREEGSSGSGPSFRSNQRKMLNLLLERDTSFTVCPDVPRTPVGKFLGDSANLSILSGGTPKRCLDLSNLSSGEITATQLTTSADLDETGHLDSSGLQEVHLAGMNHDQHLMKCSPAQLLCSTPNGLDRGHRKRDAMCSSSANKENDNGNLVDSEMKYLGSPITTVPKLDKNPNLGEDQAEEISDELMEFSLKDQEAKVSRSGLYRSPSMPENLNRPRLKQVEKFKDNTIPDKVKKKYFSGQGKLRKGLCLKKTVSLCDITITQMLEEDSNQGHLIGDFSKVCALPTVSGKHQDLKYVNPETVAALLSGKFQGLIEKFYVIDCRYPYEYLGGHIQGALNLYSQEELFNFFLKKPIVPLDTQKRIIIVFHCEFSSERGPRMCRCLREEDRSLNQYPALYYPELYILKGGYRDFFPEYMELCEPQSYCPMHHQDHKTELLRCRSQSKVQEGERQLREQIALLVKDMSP
Description: (§1) Protein tyrosine phosphatase 1B activity was determined by measuring the rate of hydrolysis of a surrogate substrate, p-nitrophenyl phosphate (aka pNPP, C1907 Sigma, St. Louis, Mo.). The assay was carried out at room temperature in 96 well polypropylene or polyethylene plates in a total volume of 100 μL per well. Appropriate dilutions of the compounds were made in DMSO and then diluted ten fold with water. […] The reaction was initiated by adding 50 μL of diluted PTP1B diluted in 2× assay buffer containing 50 mM HEPES (pH=7.5), 300 mM NaCl and 0.2 mg/mL BSA. The phosphatase activity results in the formation of the colored product p-nitrophenol (pNP) which was continuously monitored at 405 nm every 30 seconds for 15 minutes using an appropriate plate reader. The absorbance at 405 nm was converted to nanomoles of pNP using a standard curve and the initial rate of pNP formation was calculated. […] The ratio of the apparent Km/Vmax vs. inhibitor concentration was plotted and the competitive Ki was calculated by linear regression to be the negative x-intercept. The uncompetitve Ki was similarly calculated from the x-intercept of the plot of the reciprocal of the apparent Vmax versus the inhibitor concentration.
(§2) The Kic and Kiu values are calculated as described for PTP1B. […]

[4] = molecular target: T4, PP2B (Bos taurus, UniProt P48452); test: Inhibition constant determination, selectivity panel: PP2B (pNPP hydrolysis); assay type: biochemical, Bovine; details: competitive Ki, pNPP substrate, TRIS-HCl pH 8.6 buffer; read-out: Phosphatase Inhibition Constants (Kic) PP2B
T4 construct: purchased Sigma C1907
Description: (§3) Protein tyrosine phosphatase 1B activity was determined by measuring the rate of hydrolysis of a surrogate substrate, p-nitrophenyl phosphate (aka pNPP, C1907 Sigma, St. Louis, Mo.). The assay was carried out at room temperature in 96 well polypropylene or polyethylene plates in a total volume of 100 μL per well. Appropriate dilutions of the compounds were made in DMSO and then diluted ten fold with water. […] The reaction was initiated by adding 50 μL of diluted PTP1B diluted in 2× assay buffer containing 50 mM HEPES (pH=7.5), 300 mM NaCl and 0.2 mg/mL BSA. The phosphatase activity results in the formation of the colored product p-nitrophenol (pNP) which was continuously monitored at 405 nm every 30 seconds for 15 minutes using an appropriate plate reader. The absorbance at 405 nm was converted to nanomoles of pNP using a standard curve and the initial rate of pNP formation was calculated. […] The ratio of the apparent Km/Vmax vs. inhibitor concentration was plotted and the competitive Ki was calculated by linear regression to be the negative x-intercept. The uncompetitve Ki was similarly calculated from the x-intercept of the plot of the reciprocal of the apparent Vmax versus the inhibitor concentration. […]
as §2

[5] = molecular target: T5, SHP-2 (full length) (Homo sapiens, UniProt Q06124); test: Inhibition constant determination, selectivity panel: SHP-2 (pNPP hydrolysis); assay type: biochemical; details: competitive Ki, pNPP substrate; read-out: Phosphatase Inhibition Constants (Kic) SHP-2
T5 construct: SHP-2 (full length) was expressed in from E. coli; made in house; host or cells: E. coli
T5 sequence (Q06124 1-593): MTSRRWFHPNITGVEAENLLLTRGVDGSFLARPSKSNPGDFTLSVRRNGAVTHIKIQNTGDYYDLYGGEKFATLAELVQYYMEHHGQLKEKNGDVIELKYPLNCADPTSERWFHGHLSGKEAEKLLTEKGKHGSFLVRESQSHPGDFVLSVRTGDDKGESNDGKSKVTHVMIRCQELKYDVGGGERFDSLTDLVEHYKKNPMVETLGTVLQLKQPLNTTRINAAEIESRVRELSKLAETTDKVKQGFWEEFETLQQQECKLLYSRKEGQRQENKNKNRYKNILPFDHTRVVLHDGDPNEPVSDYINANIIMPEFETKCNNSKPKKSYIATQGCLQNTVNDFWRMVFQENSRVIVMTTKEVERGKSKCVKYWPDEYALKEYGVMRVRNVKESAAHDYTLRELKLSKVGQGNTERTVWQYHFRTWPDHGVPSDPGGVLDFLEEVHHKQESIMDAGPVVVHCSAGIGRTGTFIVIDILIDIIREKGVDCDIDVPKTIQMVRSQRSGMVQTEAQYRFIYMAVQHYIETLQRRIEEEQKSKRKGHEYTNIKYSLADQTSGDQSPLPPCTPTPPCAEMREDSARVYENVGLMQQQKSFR
Description: as §1, §2

[6] = molecular target: T6, LAR (Homo sapiens, UniProt P10586); test: Inhibition constant determination, selectivity panel: LAR (pNPP hydrolysis); assay type: biochemical; details: competitive Ki, pNPP substrate; read-out: Phosphatase Inhibition Constants (Kic) LAR
T6 construct: purchased New England Biolabs P0750L
T6 sequence (P10586 1301-1639 limits assumed): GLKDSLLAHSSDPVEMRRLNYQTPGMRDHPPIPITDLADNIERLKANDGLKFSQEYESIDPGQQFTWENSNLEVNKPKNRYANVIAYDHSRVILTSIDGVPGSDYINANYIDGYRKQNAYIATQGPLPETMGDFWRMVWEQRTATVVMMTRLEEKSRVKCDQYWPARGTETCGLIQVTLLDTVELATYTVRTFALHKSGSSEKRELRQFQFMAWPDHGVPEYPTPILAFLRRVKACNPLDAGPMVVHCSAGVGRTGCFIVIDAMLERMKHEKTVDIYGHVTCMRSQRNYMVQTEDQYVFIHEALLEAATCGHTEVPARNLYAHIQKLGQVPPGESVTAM
Description: as §3, §2

[7] = molecular target: T7, CD45 (Homo sapiens, UniProt P08575); test: Inhibition constant determination, selectivity panel: CD45 (pNPP hydrolysis); assay type: biochemical; details: competitive Ki, pNPP substrate; read-out: Phosphatase Inhibition Constants (Kic) CD45
T7 construct: purchased Biomol Research Laboratories SE-135
T7 sequence (P08575 609-1306 limits assumed): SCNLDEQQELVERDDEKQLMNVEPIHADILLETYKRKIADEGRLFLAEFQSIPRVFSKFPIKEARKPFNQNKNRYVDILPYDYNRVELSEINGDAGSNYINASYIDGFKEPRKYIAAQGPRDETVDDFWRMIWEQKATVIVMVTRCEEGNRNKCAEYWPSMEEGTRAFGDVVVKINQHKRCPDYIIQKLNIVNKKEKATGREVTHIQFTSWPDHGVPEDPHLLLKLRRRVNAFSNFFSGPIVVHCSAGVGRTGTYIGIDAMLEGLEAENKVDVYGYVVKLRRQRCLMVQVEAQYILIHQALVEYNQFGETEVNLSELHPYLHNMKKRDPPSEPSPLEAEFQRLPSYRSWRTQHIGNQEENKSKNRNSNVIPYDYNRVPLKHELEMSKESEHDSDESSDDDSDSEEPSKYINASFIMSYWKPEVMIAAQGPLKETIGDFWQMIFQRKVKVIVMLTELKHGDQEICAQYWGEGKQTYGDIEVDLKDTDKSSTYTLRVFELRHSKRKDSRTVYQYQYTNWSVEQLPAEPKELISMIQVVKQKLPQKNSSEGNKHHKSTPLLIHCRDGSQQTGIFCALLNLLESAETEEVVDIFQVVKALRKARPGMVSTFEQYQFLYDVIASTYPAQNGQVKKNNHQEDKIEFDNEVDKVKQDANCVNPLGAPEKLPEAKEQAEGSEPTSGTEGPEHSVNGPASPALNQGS
Description: as §3, §2

T4 sequence (P63099 2-170 partner limits assumed, other chains not shown): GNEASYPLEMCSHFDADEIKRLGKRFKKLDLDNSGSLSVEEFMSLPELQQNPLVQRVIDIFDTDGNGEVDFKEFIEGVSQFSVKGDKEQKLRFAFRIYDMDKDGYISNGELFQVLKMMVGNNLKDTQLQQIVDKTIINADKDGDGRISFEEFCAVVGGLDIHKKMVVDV

| Structure (SMILES) | pKi [1] | selective for PTP1B over TCPTP [1] | pKi [2] | pKi [3] | pKi [4] | pKi [5] | pKi [6] | pKi [7] |
| --- | --- | --- | --- | --- | --- | --- | --- | --- |
| CCC(CN(C(=O)C(=O)O)c1ccc(C[C@H](NC(=O)OC(C)(C)C)C(=O)NCCCCOc2cccc(O)c2C(=O)OC)cc1)C(=O)O (stereo partly drawn) [Example 36, Methyl 2-(4-{[N-(tert-butoxycarbonyl)-4-[(2-carboxybutyl)(carboxycarbonyl)amino]phenylalanyl]amino}butoxy)-6-hydroxybenzoate] | 5.10 | at least 6 fold | 5.89 | – | – | – | – | – |
| CCc1cc(C[C@H](NC(C)=O)C(=O)NCCCCC(=O)N[C@@H](CCSC)C(=O)O)ccc1N(C(=O)C(=O)O)c1ccccc1C(=O)O [Example 3, N-{5-[(N-acetyl-4-[(carboxycarbonyl)(2-carboxyphenyl)amino]-3-ethylphenylalanyl)amino]pentanoyl}-L-methionine] | – | – | – | < 3.70 | < 3.70 | 4.77 | 5.30 | < 3.70 |
| COC(=O)c1c(O)cccc1OCCCCNC(=O)[C@H](Cc1ccc(NC(=O)C(=O)O)cc1)NC(=O)OC(C)(C)C [Example 45, Methyl 2-(4-{[4-(carboxycarbonyl)amino-N-(tert-butoxycarbonyl)phenylalanyl]amino}butoxy)-6-hydroxybenzoate] | 3.85 | – | – | – | – | – | – | – |
| COC(=O)c1c(O)cccc1OCCCCNC(=O)CCc1ccc(NC(=O)C(=O)O)c(C(=O)O)c1 [Example 52, 2-[(carboxycarbonyl)amino]-5-[3-({4-[3-hydroxy-2-(methoxycarbonyl)phenoxy]butyl}amino)-3-oxopropyl]benzoic acid] | 4.42 | at least 14 fold | 5.57 | – | – | – | – | – |
| CCc1cc(C[C@H](NC(C)=O)C(=O)NCCCCOc2cccc(O)c2C(=O)OC)ccc1N(C(=O)C(=O)O)c1ccccc1C(=O)O [Example 13, Methyl 2-{4-[(N-acetyl-4-[(carboxycarbonyl)(2-carboxyphenyl)amino]-3-ethylphenylalanyl)amino]butoxy}-6-hydroxybenzoate] | 6.24 | – | – | < 3.70 | < 3.70 | 4.85 | 5.34 | < 3.70 |
